Test results from PMC9130766 (Frontiers in Pharmacology, 2022).
Entries after “also recorded” stand apart in the source; their conditions may differ. Where two headings read alike, the source gives them in different places.

What was measured:
[1] = target: T1, bacterial neuraminidase (BNA) (Clostridium perfringens, UniProt P10481); assay type: biochemical, C. perfrigens
[2] = target: T1, bacterial neuraminidase (BNA); test: biochemical; assay type: binding, C. perfrigens
[3] = test system: E. coli biofilm; test: Antibiofilm assay (crystal violet staining); assay type: cell-based; details: Escherichia coli, 24 h, 37°C, read-out: concentration giving 50% inhibition of E. coli biofilm production
Description: A 96-well microtiter plate (polystyrene) was used to measure the anti-biofilm activity as described previously ([Mohanta et al., 2020]). First, 180 μl of DNB and 10 μl of the test pathogens (OD = 1.0, 600 nm) were added to individual wells. Then, 10 μl solutions of ugonin J with different concentrations was added to each well and the contents of each well were mixed thoroughly. The prepared plate was then incubated for 24 h in a static condition at 37°C. After incubation, the supernatant in the wells in the plate was discarded and the residue washed with phosphate buffered saline (pH 7.2) to remove the free-floating non-adherent cells from the wells in the plate. The plate was then air-dried for about 45 min before the bacteria in the wells were fixed with 2% (w/v) sodium acetate. This was followed by flooding the wells with crystal violet stain (0.1%, w/v) and incubation in the dark for 30 min. After this, the wells in the plate were washed with sterile deionized water to remove all dye and allowed to dry. After drying, each well in the plate was filled with 200 μl of ethanol (95%, v/v) and the absorbance of this solution was measured at 620 nm using the SpectraMax M3 Multi-Mode Microplate Reader. All assays were conducted in triplicate and the mean ± standard deviation was calculated. […]

[4] = test system: E. coli; test: Cell growth of E. coli (OD 600 nm); assay type: cell-based, Escherichia coli; details: up to a concentration of 296 µM, compared to the control
Description: Escherichia coli was used in the study. All experiments were conducted in Difco™ Nutrient Broth (DNB) medium at 37°C. The E. coli was removed from glycerol stock at −80 C and transferred to the DNB plate. Next, in a 250 ml flask, a fresh single colony was inoculated into DNB (25 ml) medium and cultured at 37 C with 250 rpm for 24 h. Using the SpectraMaxM3 Multi-Mode Microplate Reader cell growth was found in the presence of different concentrations of compounds at optical densities of 600 nm. All experiments were conducted with at least three independent cultures ([Cho et al., 2013]).
Bacterial biofilms are a serious health concern owing to their abilities to tolerate antibiotics, host defense systems, and other external stresses ([Sharma et al., 2019]). It is generally accepted that neuraminidase participates in biofilm production together with quorum sensing. […] The crystal violet staining method was used for the detection of biofilm production. To investigate biofilm inhibition, E. coli was cultured overnight with or without inhibitor 1 in a 96-well plate.

[5] = target: T1, bacterial neuraminidase (BNA); test: biochemical; assay type: biochemical, C. perfrigens
[6] = target: T1, bacterial neuraminidase (BNA); test: biochemical; assay type: biochemical, C. perfrigens; remark: listed apart in the source
[7] = pH 5.0, read-out: IC50, inhibition of bacterial neuraminidase (BNA)
[8] = IC50, inhibition of bacterial neuraminidase (BNA)

T1 sequence (P10481 whole entry, looked up): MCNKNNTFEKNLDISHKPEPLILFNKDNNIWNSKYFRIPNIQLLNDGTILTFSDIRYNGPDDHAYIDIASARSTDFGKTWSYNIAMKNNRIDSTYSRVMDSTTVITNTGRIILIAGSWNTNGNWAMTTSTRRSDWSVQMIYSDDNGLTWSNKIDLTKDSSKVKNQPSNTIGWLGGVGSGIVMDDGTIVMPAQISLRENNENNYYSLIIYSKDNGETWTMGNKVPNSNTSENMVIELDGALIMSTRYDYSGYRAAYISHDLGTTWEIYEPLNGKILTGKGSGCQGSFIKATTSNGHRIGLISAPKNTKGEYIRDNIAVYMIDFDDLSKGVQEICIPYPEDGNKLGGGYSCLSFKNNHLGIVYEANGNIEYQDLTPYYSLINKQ

For `C=C1CCCC(C)(C)[C@@H]1Cc1c(O)cc2oc(-c3ccc(O)c(O)c3)cc(=O)c2c1O` [Compound 1, ugonin J], the “k 5” value [1] was 0.0103 min⁻¹, the “k 6” value [1] was 0.0486 min⁻¹ and the “K SV (Stern-Volmer quenching constant)” value [2] was 4.77e+06 L/mol. For the same molecule, the Kd [2] was 282 nM, the “fluorescence (FS) reduction of BNA” value [2] was “complete FS reduction” and the “n (number of binding sites)” value [2] was 1.30. The IC50 [3] was 18000 nM, the “growth inhibition of E. coli” value [4] was “no growth inhibition” and the IC50 [5, 7] was 50 nM. For the same molecule, the Kinetic mode [6] was “noncompetitive inhibitor; also recorded: Noncompetitive (0.05)” and the “reversibility of BNA inhibition” value [6] was “reversible inhibitor”.

In the case of `C=C1CCCC(C)(C)C1Cc1c(O)cc2c(c1O)C(=O)CC(c1ccc(O)c(O)c1)O2` (centres unmarked) [Compound 2, 2-(3,4-dihydroxyphenyl)-6-[(2,2-dimethyl-6 methylenecyclohexyl)methyl]-5,7-dihydroxy-chroman-4-one], the “K SV (Stern-Volmer quenching constant)” value [2] is reported as 2.53e+06 L/mol, the Kd [2] is reported as 746 nM and the “n (number of binding sites)” value [2] is reported as 1.01. For the same molecule, the “fold greater BNA inhibitive ability than parent (mother) compound” value [5] was 250 fold, the IC50 [5, 7] was 70 nM and the Ki [6] was 60 nM. For the same molecule, the Kinetic mode [6] was “Noncompetitive (0.06)”.

In the case of `CC1=CCCC(C)(C)C1Cc1c(O)c(O)cc2oc3c(=O)c4c(O)cc(O)cc4oc3c12` (centres unmarked) [Compound 4, ugonin M], the “K SV (Stern-Volmer quenching constant)” value [2] is reported as 810000 L/mol, the Kd [2] is reported as 1180 nM and the “n (number of binding sites)” value [2] is reported as 1.13. The IC50 [5, 7] was 150 nM, the Ki [6] was 120 nM and the Kinetic mode [6] was “Noncompetitive (0.12)”.

With `CC1(C)CCC[C@@]2(C)Oc3c(c(O)cc4oc(-c5ccc(O)c(O)c5)cc(=O)c34)C[C@@H]12` [Compound 5, ugonin S] the “K SV (Stern-Volmer quenching constant)” value [2] was 70000 L/mol, the Kd [2] was 16700 nM and the “n (number of binding sites)” value [2] was 1.24. The IC50 [5, 8] was 140 nM, the IC50 [5, 7] was 280 nM and the Ki [6] was 250 nM. The Kinetic mode [6] was “Noncompetitive (0.25)”.

With `CC1(C)CCCC2(C)Oc3cc4oc(-c5ccc(O)c(O)c5)cc(=O)c4c(O)c3CC12` (centres unmarked) [Compound 6, ugonin U] the “K SV (Stern-Volmer quenching constant)” value [2] was 50000 L/mol, the Kd [2] was 33300 nM and the “n (number of binding sites)” value [2] was 1.44. The IC50 [5, 7] was 350 nM, the Ki [6] was 290 nM and the Kinetic mode [6] was “Noncompetitive (0.29)”.

`O=C1C[C@@H](c2ccc(O)c(O)c2)Oc2cc(O)cc(O)c21` [Eriodictyol, reference compound] showed an IC50 [5, 7] of 17800 nM.

`O=c1cc(-c2ccc(O)c(O)c2)oc2cc(O)cc(O)c12` [Luteolin, reference compound] was tested, and the “fluorescence (FS) reduction of BNA” value [2] was “did not undergo FS reduction” and the IC50 [5, 7] was 4400 nM.

With `O=c1c(O)c(-c2ccc(O)c(O)c2)oc2cc(O)cc(O)c12` [Quercetin, reference compound] the IC50 [5, 8] was 20400 nM.
